Measured values taken from publication PMC11551755, “Structure-based discovery of first inhibitors targeting the helicase activity of human PIF1” (Nucleic Acids Research, 2024).

Assays:
[1] = target: T1, FLhPIF1 (full length human PIF1) (Homo sapiens, UniProt Q9H611); test: radiometric strand displacement helicase assay, no pre-incubation; format: biochemical; settings: for fold increase in inhibition at 1 mM relative to compound 1: 1 mM single point helicase screen; for inhibition at 1000 µM: 1 mM single point, gel-based DNA unwinding assay, four repeats (S4 n=3); for IC50: 0.0078–2 mM compound, 10 nM FLhPIF1, 0.1 nM DNA substrate, n = 3, read-out: IC50 for inhibition of FLhPIF1 helicase activity
T1 construct: Full length human PIF1 (FLhPIF1) was expressed and purified as a His-SUMO fusion; His-SUMO (cleaved yes); made in house; 'following similar protocols' to hPIF1HD (ArcticExpress BL21(DE3) E. coli)
T1 sequence (Q9H611 1-641): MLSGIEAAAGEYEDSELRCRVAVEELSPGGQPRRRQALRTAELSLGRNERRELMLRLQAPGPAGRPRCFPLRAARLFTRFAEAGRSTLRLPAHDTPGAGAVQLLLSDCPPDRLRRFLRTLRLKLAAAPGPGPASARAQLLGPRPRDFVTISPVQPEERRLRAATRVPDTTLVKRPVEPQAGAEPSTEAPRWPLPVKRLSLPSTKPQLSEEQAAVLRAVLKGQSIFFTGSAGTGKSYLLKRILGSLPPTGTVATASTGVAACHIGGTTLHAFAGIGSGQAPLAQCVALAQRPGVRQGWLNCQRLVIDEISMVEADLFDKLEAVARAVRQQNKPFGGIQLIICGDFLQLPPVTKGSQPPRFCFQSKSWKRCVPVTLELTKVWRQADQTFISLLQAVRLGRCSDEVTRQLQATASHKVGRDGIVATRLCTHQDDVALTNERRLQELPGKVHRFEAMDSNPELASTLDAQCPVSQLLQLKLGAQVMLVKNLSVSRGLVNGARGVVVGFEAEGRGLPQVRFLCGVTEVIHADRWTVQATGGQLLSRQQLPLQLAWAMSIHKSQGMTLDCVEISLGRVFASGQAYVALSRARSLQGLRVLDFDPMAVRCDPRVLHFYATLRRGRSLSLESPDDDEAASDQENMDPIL
Protocol: Helicase activity was assayed using a radiometric strand displacement assay employing a partially single- and double-stranded substrate generated by annealing two oligonucleotides: 5′-(T)55-[…] and 5′-[…], as described previously ([19],[28]). […] SMIs (100 mM stocks in DMSO) were assayed at up to 2 mM without pre-incubation with FLhPIF1, unless otherwise stated. […] Dried gels were exposed to phosphorimaging plates (Fujifilm) for imaging and quantification (Fuji FLA3000, image gauge V3.3 software). IC50 values were analysed by non-linear regression (variable slope) using GraphPad Prism.

[2] = target: T2, human UPF1 (hUPF1) helicase (Homo sapiens, UniProt Q92900); test: helicase assay after pre-incubation of SMI with hUPF1; format: biochemical; settings: for IC50: 2 h pre-incubation at 22°C with 100 nM hUPF1, then 1:10 dilution into helicase assay, read-out: IC50 for dsDNA unwinding by hUPF1 following pre-incubation
T2 construct: Full-length human UPF1 helicase was expressed and purified as described previously; made in house
T2 sequence (Q92900 1-1129): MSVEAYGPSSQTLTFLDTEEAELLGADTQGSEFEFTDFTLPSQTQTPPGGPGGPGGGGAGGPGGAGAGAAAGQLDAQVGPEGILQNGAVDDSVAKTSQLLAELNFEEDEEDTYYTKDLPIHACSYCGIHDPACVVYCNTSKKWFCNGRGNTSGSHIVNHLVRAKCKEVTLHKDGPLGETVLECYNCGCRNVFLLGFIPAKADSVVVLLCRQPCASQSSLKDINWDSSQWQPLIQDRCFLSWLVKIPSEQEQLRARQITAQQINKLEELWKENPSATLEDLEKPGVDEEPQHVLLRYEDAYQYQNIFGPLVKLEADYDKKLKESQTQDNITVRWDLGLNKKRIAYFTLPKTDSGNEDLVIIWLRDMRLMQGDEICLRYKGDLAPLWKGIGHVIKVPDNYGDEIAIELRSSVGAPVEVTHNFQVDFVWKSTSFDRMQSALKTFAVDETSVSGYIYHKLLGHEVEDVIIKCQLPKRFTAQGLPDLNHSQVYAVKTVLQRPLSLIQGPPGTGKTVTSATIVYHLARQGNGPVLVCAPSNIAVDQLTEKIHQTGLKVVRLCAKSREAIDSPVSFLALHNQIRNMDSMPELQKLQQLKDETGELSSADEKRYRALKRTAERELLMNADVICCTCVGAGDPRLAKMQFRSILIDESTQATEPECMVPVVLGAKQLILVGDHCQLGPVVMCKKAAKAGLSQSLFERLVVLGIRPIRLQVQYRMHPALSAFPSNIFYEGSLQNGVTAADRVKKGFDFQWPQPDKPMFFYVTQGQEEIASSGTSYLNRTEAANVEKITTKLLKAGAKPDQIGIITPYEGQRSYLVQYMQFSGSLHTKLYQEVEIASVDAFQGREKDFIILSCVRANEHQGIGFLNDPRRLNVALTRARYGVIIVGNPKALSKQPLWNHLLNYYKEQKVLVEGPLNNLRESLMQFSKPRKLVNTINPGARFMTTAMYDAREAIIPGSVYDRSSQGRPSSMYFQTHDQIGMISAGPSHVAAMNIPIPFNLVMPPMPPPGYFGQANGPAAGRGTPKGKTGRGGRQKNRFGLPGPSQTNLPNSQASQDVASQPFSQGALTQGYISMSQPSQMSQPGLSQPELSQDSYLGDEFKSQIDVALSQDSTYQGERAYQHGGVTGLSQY
Protocol: Full-length human UPF1 helicase was expressed and purified as described previously ([36]).
In parallel, IC50 values for inhibition of human UPF1 (hUPF1) helicase activity by the SMIs were also determined under the same conditions. UPF1-like SF1B helicases are the most closely related family of helicases to PIF1, with significant structural and mechanistic similarity ([52]).
Figure 6. SMI IC50 for dsDNA unwinding determined following pre-incubation. SMIs (0.0078–2 mM SMI) were incubated for 2 h at 22°C (100 nM FLhPIF1 or hUPF1) before dilution (1:10) in the standard helicase assay (0.1 nM DNA substrate). For 1D and 6, structures, electrophoresis of FLhPIF1 reaction product and graphs for IC50 value determination are shown. The graphed data include the activity of SMIs towards hUPF1 and IC50 values obtained are given. See Supplementary Figure S14 for the complete data set. TEXT PRINTED IN THE PICTURE: 1D: IC50 (μM): PIF1: 978 ± 221; IC50 (μM): UPF1: N.D. | 6: IC50 (μM): PIF1: 79.4 ± 16; IC50 (μM): UPF1: 1750 ± 426
Supplementary Figure 14. IC50 DNA unwinding determined following 2 hours pre-incubation. […] The assay procedure and reaction conditions for each helicase were identical (see methods, main manuscript). The figure complements main manuscript Figure 6. […] The reason for this is unclear.

Row | Compound | inhibition of FLhPIF1 helicase activity in 1 mM single-point screen ([1]; 1 mM) | fold increase in inhibition at 1 mM relative to compound 1 [1] | inhibition at 1000 µM [1] | IC50 ([1]; no pre-incubation) | IC50 [2] | fold improvement of helicase IC50 compared to progenitor 1F ([1]; no pre-incubation) | fold difference in sensitivity, hUPF1 vs FLhPIF1 IC50 ([2]; 2 h pre-incubation)
1 | CC(=O)Nc1ccc(-c2csc(N)n2)cc1-c1ccc(C)cc1 [Compound 10] | strongly inhibited the protein | up to 6.5 fold | 80.9 ± 5.5% | 174 ± 7 µM |  |  | 
2 | CC(=O)c1ccc(-c2csc(N)n2)cc1 [Compound 2] |  |  | 79.1 ± 5.2% | 165 ± 75 µM | 445 ± 132 µM |  | 
3 | CC(=O)Nc1ccc(-c2csc(N)n2)cc1C1=CCNCC1 [Compound 11] |  | up to 6.5 fold | 84.8 ± 3.4% | 188 ± 8 µM | 576 ± 146 µM |  | 
4 | N#Cc1ccc(-c2csc(N)n2)cc1 [Compound 5] |  |  | 84 ± 4.1% | 105 ± 6 µM | 289 ± 127 µM |  | 
5 | Nc1nc(-c2ccc(C(=O)c3ccccc3)cc2)cs1 [Compound 6] |  |  | 82.3 ± 6.6% | 36 ± 7 µM | 1750 ± 426 µM | 30 fold | ~22 fold
